From a compilation of properties of binary mixtures (doi:10.1021/acs.jced.9b00875)

Assay: xn = mol fraction of the nth substance listed
Details: 101 kPa

CNC(C)=O + CCCC[n+]1ccn(C)c1.F[B-](F)(F)F
Details	speed of sound [m/s]	viscosity [mPa·s]
293.15 K, x2 = 0	1406.2	5.56
293.15 K, x2 = 0.2042	1479.3	8.7
293.15 K, x2 = 0.27	1497.8	10.6
293.15 K, x2 = 0.3564	1517.3	14.28
293.15 K, x2 = 0.4992	1540.3	24.5
293.15 K, x2 = 0.5552	1546.9	30.2
293.15 K, x2 = 0.6389	1555.3	41
293.15 K, x2 = 0.714	1561.4	53.3
293.15 K, x2 = 0.8495	1569.8	82.6
293.15 K, x2 = 0.9302	1573.9	104.9
298.15 K, x2 = 0	1385.3	4.77
298.15 K, x2 = 0.1409	1440	6.18
298.15 K, x2 = 0.27	1480.6	8.7
298.15 K, x2 = 0.3564	1501.1	11.64
298.15 K, x2 = 0.4343	1516	15.46
298.15 K, x2 = 0.5552	1532.7	24.2
298.15 K, x2 = 0.6389	1542	32.6
298.15 K, x2 = 0.714	1548.6	42.1
298.15 K, x2 = 0.8495	1558	64.5
298.15 K, x2 = 0.9302	1562.5	81.6
303.15 K, x2 = 0	1366.3	4.09
303.15 K, x2 = 0.0711	1395.9	4.92
303.15 K, x2 = 0.2042	1444.8	6.38
303.15 K, x2 = 0.27	1464.5	7.32
303.15 K, x2 = 0.3564	1486	9.13
303.15 K, x2 = 0.4343	1501.4	11.57
303.15 K, x2 = 0.4992	1511.8	14.39
303.15 K, x2 = 0.5552	1519.2	17.5
303.15 K, x2 = 0.6389	1529.2	23.6
303.15 K, x2 = 0.714	1536.2	30.7
303.15 K, x2 = 0.7774	1541.2	38.1
303.15 K, x2 = 0.8495	1546.2	48.2
303.15 K, x2 = 0.9302	1551	62
308.15 K, x2 = 0.0711	1380.7	4.25
308.15 K, x2 = 0.1409	1408.3	4.86
308.15 K, x2 = 0.2042	1430.4	5.48
308.15 K, x2 = 0.27	1450.3	6.31
308.15 K, x2 = 0.3564	1472.3	7.85
308.15 K, x2 = 0.4343	1488.2	9.86
308.15 K, x2 = 0.4992	1498.9	12.11
308.15 K, x2 = 0.5552	1506.5	14.56
308.15 K, x2 = 0.6389	1516.8	19.2
308.15 K, x2 = 0.7774	1529.2	30.2
308.15 K, x2 = 0.8495	1534.1	37.8
308.15 K, x2 = 0.9302	1539.1	48
313.15 K, x2 = 0	1336.4	3.08
313.15 K, x2 = 0.0711	1367.7	3.76
313.15 K, x2 = 0.1409	1395.4	4.34
313.15 K, x2 = 0.2042	1417.6	4.86
313.15 K, x2 = 0.27	1437.6	5.5
313.15 K, x2 = 0.3564	1459.7	6.64
313.15 K, x2 = 0.4343	1475.8	8.12
313.15 K, x2 = 0.5552	1494.8	11.64
313.15 K, x2 = 0.6389	1505	15.21
313.15 K, x2 = 0.714	1512	19.4
313.15 K, x2 = 0.7774	1517.5	23.7
313.15 K, x2 = 0.8495	1522.3	29.7
313.15 K, x2 = 0.9302	1527	37.8
318.15 K, x2 = 0	1325.2	2.76
318.15 K, x2 = 0.2042	1406.7	4.13
318.15 K, x2 = 0.27	1426.7	4.62
318.15 K, x2 = 0.3564	1448.6	5.5
318.15 K, x2 = 0.4343	1464.7	6.68
318.15 K, x2 = 0.4992	1476	8.04
318.15 K, x2 = 0.5552	1484.1	9.55
318.15 K, x2 = 0.6389	1493.8	12.51
318.15 K, x2 = 0.714	1501	16
318.15 K, x2 = 0.7774	1506.1	19.7
318.15 K, x2 = 0.8495	1510.8	24.7
318.15 K, x2 = 0.9302	1514.9	31.6

CCCC[n+]1ccn(C)c1.F[B-](F)(F)F + CNC(C)=O
x1 = 1
Details	speed of sound [m/s]	viscosity [mPa·s]
298.15 K	1565.8	98.9
303.15 K	1554.5	76.3
308.15 K	1542.7	58.4
313.15 K	1530.5	46.2
318.15 K	1518	38.7
